# Reference: patent US7790737B2, “Substituted pyrimidine compounds and their utility as CETP inhibitors” (Kowa Company, Ltd., priority 2007, dated 2010)
# Target: T1, CETP (Homo sapiens, UniProt P11597)
# T1 construct: from tissue; host or cells: human plasma
# T1 sequence (P11597 18-493): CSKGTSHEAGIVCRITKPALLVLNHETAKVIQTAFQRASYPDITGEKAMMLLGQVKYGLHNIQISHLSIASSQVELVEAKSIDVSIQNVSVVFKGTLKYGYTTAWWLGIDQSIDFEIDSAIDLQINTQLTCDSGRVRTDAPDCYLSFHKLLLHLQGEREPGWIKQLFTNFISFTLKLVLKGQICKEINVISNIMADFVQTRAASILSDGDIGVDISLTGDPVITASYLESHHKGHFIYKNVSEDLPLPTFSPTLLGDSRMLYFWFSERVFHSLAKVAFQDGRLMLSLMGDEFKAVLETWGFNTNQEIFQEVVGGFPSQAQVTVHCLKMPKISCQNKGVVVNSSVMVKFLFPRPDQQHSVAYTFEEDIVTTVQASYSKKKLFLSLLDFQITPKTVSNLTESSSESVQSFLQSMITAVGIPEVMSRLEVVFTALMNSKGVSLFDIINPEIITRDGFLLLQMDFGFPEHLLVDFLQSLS
# Assay: Measurement of CETP inhibitory action in human plasma (Roar Biomedical CETP Activity kit, fluorescence)
# Format: biochemical
# Conditions: human plasma incubated with compound at 37° C. for 4 hours; calculated from CETP inhibitory rate at two or more concentrations; read-out: IC50 (concentration inhibiting the CETP activity by 50%)
# Experimental: A solution obtained by dissolving an exemplary compound or a comparative compound in polyethylene glycol/N-methyl-2-pyrrolidone (vol/vol=1/1) was added to human plasma, and the mixture was incubated in an incubator at 37° C. for 4 hours. The CETP activity in this plasma was measured with Cholesteryl Ester Transfer Protein Activity kit (Roar Biomedical, catalog No.: RB-CETP). Specifically, to each well of a 96-well plate, 95 μL of a buffer (10 mM Tris, 150 mM NaCl, 2 mM EDTA, pH 7.4), 2 μL of Donor particle and 2 μL of Acceptor particle were added, 1 μL of the human plasma after the incubation was added to the mixture, and the mixture was incubated in an incubator at 37° C. for 2 hours. After completion of the incubation, fluorescence intensity (FLU) was measured with a fluorescence plate reader (excitation wavelength: 465 nm, emission wavelength: 535 nm). In accordance with the following equation 1, the CETP activity (% of control) was obtained for the compounds of the examples and the comparative compounds for two or more concentrations. CETP activity (% of control)=(Sample FLU−Blank FLU)×100/(Control FLU−Blank FLU) (Equation 1) In the equation, the terms have the following meanings: Blank FLU: Fluorescence intensity of sample not added with plasma Control FLU: Fluorescence intensity of plasma not added with solution of compound Sample FLU: Fluorescence intensity of plasma added with solution of compound
# A value obtained by subtracting the value of the CETP activity from 100 was defined as the CETP inhibitory rate of each exemplary compound, and a concentration inhibiting the CETP activity by 50% (IC50) was calculated for each exemplary compound from the values of the CETP inhibitory rate at two or more concentrations. As the comparative compound, the following compound was used, which is the pyrimidine compound having a benzyl(heterocyclylmethyl)amine structure described in Example 66 of Patent document 10 (International Patent Publication WO2006/073973).
row,potency estimated from few doses [nM],Compound
1,50,"CCN(CC1CCCC1)c1nc2ccccc2cc1CN(c1ncc(OCCS(C)(=O)=O)cn1)C(C)c1cc(C(F)(F)F)cc(C(F)(F)F)c1 (centres unmarked) [Example 7, 3-[({1-[3,5-bis(trifluoromethyl)phenyl]ethyl}{5-[2-(methylsulfonyl)ethoxy]pyrimidin-2-yl}amino)methyl]-N-(cyclopentylmethyl)-N-ethylquinolin-2-amine]"
2,80,"CCN(CC1CCCC1)c1nc2ccc(C)cc2cc1CN(c1ncc(OCCS(C)(=O)=O)cn1)C(C)c1cc(C(F)(F)F)cc(C(F)(F)F)c1 (centres unmarked) [Example 13, 3-[({1-[3,5-bis(trifluoromethyl)phenyl]ethyl}{5-[2-(methylsulfonyl)ethoxy]pyrimidin-2-yl}amino)methyl]-N-(cyclopentylmethyl)-N-ethyl-6-methylquinolin-2-amine]"
3,200,"CCN(CC1CCCC1)c1nc(C)ccc1CN(c1ncc(OCCS(C)(=O)=O)cn1)C(C)c1cc(C(F)(F)F)cc(C(F)(F)F)c1 (centres unmarked) [Example 15, N-{1-[3,5-bis(trifluoromethyl)phenyl]ethyl}-N-({2-[(cyclopentylmethyl)(ethyl)amino]-6-methylpyridin-3-yl}methyl)-5-[2-(methylsulfonyl)ethoxy]pyrimidin-2-amine]"
4,45,"CCc1ccc(CN(c2ncc(OCCS(C)(=O)=O)cn2)C(C)c2cc(C(F)(F)F)cc(C(F)(F)F)c2)c(N(CC)CC2CCCC2)n1 (centres unmarked) [Example 17, N-{1-[3,5-bis(trifluoromethyl)phenyl]ethyl}-N-({2-[(cyclopentylmethyl)(ethyl)amino]-6-ethylpyridin-3-yl}methyl)-5-[2-(methylsulfonyl)ethoxy]pyrimidin-2-amine]"
5,30,"CCN(CC1CCCC1)c1nc(C)c(C)cc1CN(c1ncc(OCCS(C)(=O)=O)cn1)C(C)c1cc(C(F)(F)F)cc(C(F)(F)F)c1 (centres unmarked) [Example 19, N-{1-[3,5-bis(trifluoromethyl)phenyl]ethyl}-N-({2-[(cyclopentylmethyl)(ethyl)amino]-5,6-dimethylpyridin-3-yl}methyl)-5-[2-(methylsulfonyl)ethoxy]pyrimidin-2-amine]"

# The remaining lines, values behind:
row,Compound,potency estimated from few doses [nM]
1,"CCN(CC1CCCC1)c1nc2ccccc2cc1CN(Cc1cc(C(F)(F)F)cc(C(F)(F)F)c1)c1ncccn1 [Comparative Compound 1, reference compound]",20000
2,"CCN(CC1CCCC1)c1ccc(OC)nc1CN(c1ncc(OCC[S+](C)[O-])cn1)C(C)c1cc(C(F)(F)F)cc(C(F)(F)F)c1 (centres unmarked) [Example 2, N-{1-[3,5-bis(trifluoromethyl)phenyl]ethyl}-N-({3-[(cyclopentylmethyl)(ethyl)amino]-6-methoxypyridin-2-yl}methyl)-5-[2-(methylsulfinyl)ethoxy]pyrimidin-2-amine]",150
3,"CCN(CC1CCCC1)c1ccc(OC)nc1CN(c1ncc(OCCS(C)(=O)=O)cn1)C(C)c1cc(C(F)(F)F)cc(C(F)(F)F)c1 (centres unmarked) [Example 3, N-{1-[3,5-bis(trifluoromethyl)phenyl]ethyl}-N-({3-[(cyclopentylmethyl)(ethyl)amino]-6-methoxypyridin-2-yl}methyl)-5-[2-(methylsulfonyl)ethoxy]pyrimidin-2-amine]",150
4,"CCN(CC1CCCC1)c1nc2c(cc1CN(c1ncc(OCCS(C)(=O)=O)cn1)C(C)c1cc(C(F)(F)F)cc(C(F)(F)F)c1)c(C)nn2C (centres unmarked) [Example 5, 5-[({1-[3,5-bis(trifluoromethyl)phenyl]ethyl}{5-[2-(methylsulfonyl)ethoxy]pyrimidin-2-yl}amino)methyl]-N-(cyclopentylmethyl)-N-ethyl-1,3-dimethyl-1H-pyrazolo[3,4-b]pyridin-6-amine]",35
5,"CCN(CC1CCCC1)c1nc2ccc(OC)cc2cc1CN(c1ncc(OCCS(C)(=O)=O)cn1)C(C)c1cc(C(F)(F)F)cc(C(F)(F)F)c1 (centres unmarked) [Example 9, 3-[({1-[3,5-bis(trifluoromethyl)phenyl]ethyl}{5-[2-(methylsulfonyl)ethoxy]pyrimidin-2-yl}amino)methyl]-N-(cyclopentylmethyl)-N-ethyl-6-methoxyquinolin-2-amine]",500
6,"CCN(CC1CCCC1)c1nc2ccc(C(F)(F)F)cc2cc1CN(c1ncc(OCCS(C)(=O)=O)cn1)C(C)c1cc(C(F)(F)F)cc(C(F)(F)F)c1 (centres unmarked) [Example 11, 3-[({1-[3,5-bis(trifluoromethyl)phenyl]ethyl}{5-[2-(methylsulfonyl)ethoxy]pyrimidin-2-yl}amino)methyl]-N-(cyclopentylmethyl)-N-ethyl-6-trifluoromethylquinolin-2-amine]",80
7,"CCN(CC1CCCC1)c1nc2c(cc1CN(c1ncc(OCCS(C)(=O)=O)cn1)C(C)c1cc(C#N)cc(C(F)(F)F)c1)c(C)nn2C (centres unmarked) [Example 23, 3-{1-[({6-[(cyclopentylmethyl)(ethyl)amino]-1,3-dimethyl-1H-pyrazolo[3,4-b]pyridin-5-yl}methyl){5-[2-(methylsulfonyl)ethoxy]pyrimidin-2-yl}amino]ethyl}-5-(trifluoromethyl)benzonitrile]",150

# System: CETP
# Assay: Measurement of CETP inhibitory activity in blood of hamster (single oral administration)
# Format: in vivo
# Conditions: hamster plasma, single oral dose 30 mg/kg in olive oil, blood collected 2 hours after administration, n=3; control 33.7 ± 2.3
# Experimental: 1: Labeling of Donor Lipoprotein (HDL3 Fraction) with ^3H-Cholesterol and Preparation of Acceptor Lipoprotein (LDL Fraction)
# The donor lipoprotein was prepared by adding KBr to plasma of healthy human subject (50 mL) to adjust the specific gravity (d) of the plasma to be 1.125, centrifuging the mixture at 100,000 rpm and 4° C. for 2.5 hours (Optima Max-E TLA-100.2 rotor, Beckman), and collecting the lower layer (HDL3 fraction, d>1.125). The resulting fraction was dialyzed against PBS (10 mM Na2HPO4, 10 mM NaH2PO4, 0.15 M NaCl, 1 mM EDTA-2Na, pH 7.4). Then, a 95% ethanol solution of 9.25 MBq 1, 2-3H(N)cholesterol (NEN™, Life Science Products, USA) was added to the sample with stirring, and the mixture was incubated at 37° C. for 18 hours. […]
# To 10 μL of the hamster plasma, 5 μL of ^3H-labeled HDL3 and […] of LDL were added, and the final volume of the mixture was made 600 μL with a TBS solution (10 mM Tris, 0.15 M NaCl, pH 7.4). […] Then, radioactivity of 3H was measured with a liquid scintillation counter (TRI-CARB 2700 TR, Packard). […] CETP activity (%)=(Blank dpm−Sample dpm)×100/(Blank dpm) (Equation 2) In the equation, the terms have the following meanings: Blank dpm: Value of 3H radioactivity of sample not added with plasma Sample dpm: Value of ^3H radioactivity of sample added with compound or control sample.
row,Compound,Average CETP activity ± standard deviation (%)
1,"CCN(CC1CCCC1)c1nc2ccccc2cc1CN(Cc1cc(C(F)(F)F)cc(C(F)(F)F)c1)c1ncccn1 [Comparative Compound 1, reference compound]",30.3 ± 4.2
2,"CCN(CC1CCCC1)c1nc2c(cc1CN(c1ncc(OCCS(C)(=O)=O)cn1)C(C)c1cc(C(F)(F)F)cc(C(F)(F)F)c1)c(C)nn2C (centres unmarked) [Example 5, 5-[({1-[3,5-bis(trifluoromethyl)phenyl]ethyl}{5-[2-(methylsulfonyl)ethoxy]pyrimidin-2-yl}amino)methyl]-N-(cyclopentylmethyl)-N-ethyl-1,3-dimethyl-1H-pyrazolo[3,4-b]pyridin-6-amine]",3.7 ± 3.2
